The test system of one series is K562. In words: Anticancer activity against human K562 cells incubated for 24 hrs by MTT assay. Format: functional, cell-based. The note with it: K562, 24 h. On the technique in general: Tetrazolium dyes change colour on reduction, which living cells bring about.
The next series has as its system MDA-MB-231. In words: Anticancer activity against human MDA-MB-231 cells incubated for 24 hrs by MTT assay. Format: functional, cell-based. The note with it: MDA-MB-231, 24 h.
For a further series, the system named is MCF7. In words: Anticancer activity against human MCF7 cells incubated for 24 hrs by MTT assay. It counts as functional, cell-based. The note with it: MCF7, 24 h.
The next series concerns HeLa. In words: Anticancer activity against human HeLa cells incubated for 24 hrs by MTT assay. It counts as functional, cell-based.
In a further series the test system is HepG2. In words: Anticancer activity against human HepG2 cells incubated for 24 hrs by MTT assay. It counts as functional, cell-based. Particulars: HepG2, 24 h.
Another series relates to HEK293. In words: Cytotoxicity activity against human HEK293 cells incubated for 24 hrs by MTT assay. It counts as cell-based. Particulars: HEK293, 24 h.
Series [1] concerns the target T1, Tyrosine-protein phosphatase non-receptor type 1 (Homo sapiens, UniProt P18031).
T1 sequence (P18031 whole entry): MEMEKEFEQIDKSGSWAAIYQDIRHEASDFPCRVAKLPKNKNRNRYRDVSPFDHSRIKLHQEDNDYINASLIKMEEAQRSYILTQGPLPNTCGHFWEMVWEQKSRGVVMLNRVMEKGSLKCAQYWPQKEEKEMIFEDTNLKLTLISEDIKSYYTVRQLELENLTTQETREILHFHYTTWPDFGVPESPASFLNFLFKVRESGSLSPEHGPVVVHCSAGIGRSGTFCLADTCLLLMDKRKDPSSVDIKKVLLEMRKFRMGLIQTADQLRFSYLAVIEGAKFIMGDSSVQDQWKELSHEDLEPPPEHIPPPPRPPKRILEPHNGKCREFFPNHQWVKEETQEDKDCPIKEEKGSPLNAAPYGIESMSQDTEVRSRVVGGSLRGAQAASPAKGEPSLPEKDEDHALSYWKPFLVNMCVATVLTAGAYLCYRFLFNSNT
In words: Inhibition of recombinant PTP1B (unknown origin) using pNPP substrate.

A short description of series [2]: Stability in various solvents up to 96 hrs at different temperatures. It counts as physicochemical.

Structures are written as SMILES. Where only a bound is given, the exact number is not on record here.

For orientation: IC50 means the point on the concentration scale where inhibition reaches its midpoint.

`COc1cccc2c1C(=O)c1c(O)c3c(c(O)c1C2=O)C[C@@](O)(C(=O)CO)C[C@@H]3O[C@H]1C[C@H](N)[C@H](O)[C@H](C)O1` [DOXORUBICIN]: the IC50 with K562 came out at 0.07 µM; in the series with MDA-MB-231, 0.6 µM; in the series on MCF7, 0.41 µM; in the series on HeLa, 0.37 µM.
With `COC(=O)c1scc(-c2ccc(NC(=O)c3ccc(C(F)(F)F)cc3)cc2)c1OC`, the IC50 was 24.6 µM in the series on HepG2; 9.26 µM in the series on K562; 18.3 µM in the series on MDA-MB-231; 24.6 µM in the series with MCF7; 14.4 µM with HeLa; 48.3 µM in the series with HEK293. Also, in series [1], the IC50 came to 14.8 µM.
`COC(=O)c1scc(-c2ccc(NC(=O)c3cccc(C(F)(F)F)c3)cc2)c1OC`: the IC50 came out at 32.5 µM in the series with HepG2; 6.13 µM in the series with K562; 24.6 µM with MDA-MB-231; 26.2 µM in the series with MCF7; 19.3 µM in the series on HeLa; 12.3 µM in series [1].
As for `COC(=O)c1scc(-c2ccc(NC(=O)c3ccc(OC)nc3)cc2)c1OC`, the IC50 in the series on HepG2 was over 50 µM; in the series on K562, 18.2 µM; in the series with MDA-MB-231, 15.3 µM; in the series on MCF7, 5.25 µM; in the series on HeLa, 24.4 µM; with HEK293, over 50 µM. Also, the IC50 in series [1] came to 22.3 µM.
Turning to `COC(=O)c1scc(-c2ccc(NC(=O)c3ccccn3)cc2)c1OC`, the 50% inhibitory concentration (IC50) in the series on HepG2 was 10.3 µM; in the series with K562 it was 24.2 µM; with MDA-MB-231 it was 8.25 µM; with MCF7 it was 19.2 µM; in the series with HeLa it was over 50 µM; in series [1], 11.3 µM.
Consider `COC(=O)c1scc(-c2ccc(NC(=O)c3cc(I)ccc3F)cc2)c1OC`, for which the IC50 with K562 turned out to be 35.6 µM; in the series with MDA-MB-231 it was 16.5 µM; in the series with MCF7, 22.5 µM; in the series on HEK293 it was 45.2 µM; in series [1] it was 20.6 µM.
As to `COC(=O)c1scc(-c2ccc(NC(=O)c3ccc4ccccc4c3)cc2)c1OC`, the IC50 in the series with HepG2 worked out at 19.5 µM; in the series on K562, 10.2 µM; in the series on MDA-MB-231, 5.25 µM; with MCF7 it was 0.09 µM; with HeLa, 18.2 µM; in series [1] it was 5.25 µM. Further, in series [2], the Stability result is “Stable”.
Consider `COC(=O)c1scc(-c2ccc(NC(=O)c3ccc(C(F)(F)F)cc3Br)cc2)c1OC`, for which the IC50 in the series on HepG2 was 28.2 µM; with K562 it was 9.25 µM; in the series on MDA-MB-231, 19.6 µM; in the series with MCF7, 22.4 µM; with HeLa, 16.2 µM; in the series with HEK293, over 50 µM. The half-inhibitory concentration (IC50) in series [1] is 16.5 µM.
Consider `COC(=O)c1scc(-c2ccc(NC(=O)c3cccs3)cc2)c1OC`, for which the IC50 is 15.3 µM with HepG2; over 50 µM with MDA-MB-231; 18.6 µM in the series with MCF7; over 50 µM with HeLa; over 50 µM in the series with HEK293; 24.3 µM in series [1].
As to `COC(=O)c1scc(-c2ccc(NC(=O)c3ncc(Cl)cc3Br)cc2)c1OC`, the IC50 was 9.53 µM in the series on HepG2; 12.6 µM with K562; 8.36 µM in the series with MDA-MB-231; 5.46 µM in the series with MCF7; 18.3 µM in the series with HeLa; over 50 µM in the series with HEK293. Also, in series [1], the IC50 was 11.2 µM.
In the case of `COC(=O)c1scc(-c2ccc(NC(=O)c3ccc(C(F)(F)F)nc3)cc2)c1OC`, the IC50 in the series with HepG2 turned out to be 23.3 µM; in the series on K562 it was 12.5 µM; with MDA-MB-231, 7.25 µM; in the series on MCF7 it was 1.47 µM; in the series on HeLa it was 23.5 µM; in series [1], 7.29 µM.
Take `COC(=O)c1scc(-c2ccc(NC(=O)c3ccc(F)c(Cl)n3)cc2)c1OC`: the IC50 stood at 10.3 µM in the series on HepG2; 8.25 µM with K562; 10.3 µM in the series with MDA-MB-231; 10.3 µM in the series with MCF7; 16.2 µM with HeLa; 12.3 µM in series [1].
Turning to `COC(=O)c1scc(-c2ccc(NC(=O)c3ccc(C#N)nc3)cc2)c1OC`, the IC50 in the series with HepG2 turned out to be 22.5 µM; with MDA-MB-231 it was 28.5 µM; with MCF7, 9.54 µM; in series [1], 12.5 µM.
As for `COC(=O)c1scc(-c2ccc(NC(=O)Cc3c(Cl)cccc3Cl)cc2)c1OC`, the half-inhibitory concentration (IC50) in the series on HepG2 is 13.5 µM; in the series with K562 it was 9.56 µM; in the series with MDA-MB-231, 14.2 µM; with MCF7, 12.2 µM; in series [1], 16.3 µM.
In the case of `COC(=O)c1scc(-c2ccc(NC(=O)c3cccc(OC(F)(F)F)c3)cc2)c1OC`, the IC50 in the series on HepG2 came out at 0.72 µM; in the series with K562, 18.2 µM; with MDA-MB-231, 7.54 µM; in the series on MCF7, 2.22 µM; in the series with HeLa it was 16.6 µM; in series [1] it was 6.37 µM.
On to `COC(=O)c1scc(-c2ccc(NC(=O)c3cccc(I)c3)cc2)c1OC`, for which the IC50 was 16.5 µM in the series on HepG2; 14.7 µM in the series with K562; 8.24 µM in the series on MDA-MB-231; 12.2 µM with MCF7; 12.7 µM in the series on HeLa; 42.7 µM in the series with HEK293. Moreover, the IC50 in series [1] was determined as 14.5 µM.

(Values after ChEMBL document CHEMBL4033727, “Design, synthesis, in silico and in vitro evaluation of thiophene derivatives: A potent tyrosine phosphatase 1B inhibitor and anticancer activity” (Bioorg Med Chem Lett, 2017).)
